Assay results from patent US6784167B2, “17-beta-hydroxysteroid dehydrogenase-II inhibitors” (Bayer Pharmaceuticals Corporation, priority 2000, dated 2004).

melting point | SMILES
223 to 227 °C | CN1C(=O)C[C@H](c2ccccc2)[C@@H]1[C@H](O)c1ccc(C(=O)Nc2ccccc2)s1 (relative stereo) [Example 4, (±)-5-[(1S*)(5-(N-phenylcarbamoyl)(2-thienyl))hydroxymethyl](4R*,5R*)-1-methyl-4-phenylpyrrolidin-2-one]
202 °C (dec.) | CN1C(=O)CC(c2ccccc2)C1C(O)c1ccc(C(=O)c2ccccc2)s1 (centres unmarked) [Example 63]
180 °C | CN1C(=O)CC(c2ccccc2)C1C(O)c1ccc(-c2cccc(F)c2)s1 (centres unmarked) [Example 46]
75 °C | CC(=O)O[C@H](c1ccc(-c2ccc(F)cc2)s1)[C@H]1[C@@H](c2ccccc2)CC(=O)N1C (relative stereo) [Example 13, (±)-(4R*,5R*)5-{(1S*)[5-(4-fluorophenyl)(2-thienyl)]acetyloxymethyl}-1-methyl4-phenylpyrrolidin-2-one]
194 to 195 °C (dec.) | CN1C(=O)CC(c2ccccc2)C1C(O)c1ccc(C=Cc2ccc(F)cc2)s1 (centres unmarked) [Example 56]
194 °C | CN1C(=O)C[C@H](c2ccccc2)[C@@H]1[C@H](O)c1ccc(-c2ccc(F)c(Cl)c2)s1 (relative stereo) [Example 5, (±)-(4R*,5R*)-5-{(1S*)[5-(3-chloro-4-fluorophenyl)(2-thienyl)]hydroxymethyl}-1-methyl-4-phenylpyrrolidin-2-one]
168 °C | CN1C(=O)CC(c2ccccc2)C1C(O)c1ccc(-c2ccc(F)cc2)o1 (centres unmarked) [Example 114]
168 to 170 °C | COc1ccc(-c2ccc(C(O)C3C(c4ccccc4)CC(=O)N3C)s2)cc1 (centres unmarked) [Example 39]
174 to 176 °C | CN1C(=O)CC(c2ccccc2)C1C(O)c1ccc(Sc2ccc(Cl)cc2)s1 (centres unmarked) [Example 60]
117 °C | CN1C(=O)CC(c2ccccc2)C1C(O)c1ccc(-c2ccc(F)cc2)cc1 (centres unmarked) [Example 111]
229 to 232 °C (dec.) | CN1C(=O)CC(c2ccccc2)C1C(O)c1ccc(C(=O)c2ccc(F)cc2)s1 (centres unmarked) [Example 65]
97 °C | CC(=O)Nc1cccc(-c2ccc(C(O)C3C(c4ccccc4)CC(=O)N3C)s2)c1 (centres unmarked) [Example 48]
232 °C | CN1C(=O)C[C@H](c2ccccc2)[C@@H]1[C@H](O)c1ccc(-c2cccnc2)s1 (relative stereo) [Example 3b, (4R,5R)-5-{(1S)-hydroxy[5-(3-pyridinyl)-2-thienyl]methyl}-1-methyl-4-phenyl-2-pyrrolidinone]
231 °C | CN1C(=O)CC(c2ccccc2)C1C(O)c1ccc(-c2cccc(C(=O)O)c2)s1 (centres unmarked) [Example 33]
155 to 157 °C | CN1C(=O)CC(c2ccccc2)C1C(O)c1ccc(Cc2ccc(F)cc2)s1 (centres unmarked) [Example 59]
121 to 123 °C | CN1C(=O)C[C@H](c2ccccc2)[C@@H]1[C@H](F)c1ccc(-c2ccc(F)cc2)s1 [Example 144]
110 °C (dec.) | CN1C(=O)C[C@H](c2ccccc2)[C@@H]1[C@H](O)c1ccc(-c2ccc(F)cc2)s1 (relative stereo) [Example 3a, (±)-(4R*,5R*)-5-{(1S*) [5-(4-fluorophenyl)(2-thienyl)]hydroxymethyl}-1-methyl-4-phenylpyrrolidin-2-one]

Second part, the compound before the results:

SMILES | melting point
CN1C(=O)CC(c2ccccc2)C1C(O)c1ccc(-c2ccccc2)cc1 (centres unmarked) [Example 93] | 202 °C
CC(=O)Nc1cccc(-c2cccc(C(O)C3C(c4ccccc4)CC(=O)N3C)c2)c1 (centres unmarked) [Example 102] | 150 °C
CN1C(=O)C[C@H](c2ccccc2)[C@@H]1[C@H](O)CCc1ccc(F)cc1 (relative stereo) [Example 16, (±)-5-[(1R*)-3-(4-fluorophenyl)-1-hydroxypropyl](4R*,5R*)-1-methyl-4-phenylpyrrolidin-2-one] | 122 to 124 °C
CN(C)c1ccc(C(O)C2C(c3ccccc3)CC(=O)N2C)cc1 (centres unmarked) [Example 101] | 182 to 185 °C
CN1C(=O)C[C@H](c2ccccc2F)[C@@H]1[C@H](O)c1ccc(-c2cccnc2)s1.Cl [Example 152] | 180 to 182 °C
COc1ccc(C2CC(=O)N(C)C2C(O)c2ccc(-c3ccccc3)s2)cc1 (centres unmarked) [Example 82] | 215 °C
CN1C(=O)CC(c2ccccc2)C1C(O)c1cc(-c2ccccc2)cs1 (centres unmarked) [Example 42] | 165 °C
CSc1nccc(-c2ccc(C(O)C3C(c4ccccc4)CC(=O)N3C)s2)n1 (centres unmarked) [Example 77] | 195 °C
CN1C(=O)CC(c2ccccc2)C1C(O)c1cc2ccccc2o1 (centres unmarked) [Example 112] | 120 to 122 °C
COc1ccc(C(O)C2C(c3ccccc3)CC(=O)N2C)cc1 (centres unmarked) [Example 100] | 154 to 157 °C
Cc1ccc([C@@H](O)[C@H]2[C@@H](c3ccccc3)CC(=O)N2C)s1 (relative stereo) [Example 6, (±)-(4R*,5R*)-5-[(1S*)-hydroxy(5-methyl(2-thienyl))methyl]-1-methyl-4-phenylpyrrolidin-2-one] | 185 to 188 °C
CN1C(=O)CC(c2ccccc2)C1C(O)c1ccc(-c2ccc3ccccc3n2)s1 (centres unmarked) [Example 40] | 225 to 228 °C
CN1C(=O)CC(c2ccccc2)C1C(O)c1ccc2c(c1)OCO2 (centres unmarked) [Example 108] | 211 °C
CO[C@H](c1cccc(-c2ccccc2)c1)[C@H]1[C@@H](c2ccccc2)CC(=O)N1C [Example 143] | 136 °C
CN1C(=O)CC(c2ccccc2)C1C(O)C#Cc1cccc(O)c1 (centres unmarked) [Example 132] | 210 to 211 °C
Cc1ccc(C(O)C2C(c3ccccc3)CC(=O)N2C)cc1 (centres unmarked) [Example 95] | 129 to 131 °C
CN1C(=O)CC(c2ccccc2)C1C(O)c1ccc(-c2cccc3ccccc23)s1 (centres unmarked) [Example 45] | 160 °C

SMILES | melting point
CN1C(=O)CC(c2ccccc2)C1C(O)c1cccc(-c2cccc(F)c2)c1 (centres unmarked) [Example 103] | 187 °C
CN1C(=O)CC(c2ccccc2)C1C(O)c1ccc(-c2cccc(N)c2)o1 (centres unmarked) [Example 119] | 98 °C
CN1C(=O)CC(c2ccccc2)C1C(O)c1cccc(-c2ccc(O)cc2)c1 (centres unmarked) [Example 110] | 230 °C
CN1C(=O)C[C@@H]2c3ccccc3[C@@](O)(c3ccc(-c4ccccc4)s3)[C@@H]21 (relative stereo) [Example 24, (±)-(8S*,3aR*,8aR*)-8-hydroxy-1-methyl-8-(5-phenyl(2-thienyl))indano[2,1-b]pyrrolidin-2-one] | 178 to 180 °C
Cc1ccc(-c2ccc(C(O)C3C(c4ccccc4)CC(=O)N3C)s2)nc1 (centres unmarked) [Example 27] | 173 °C
CN1C(=O)CC(c2ccccc2)C1C(O)c1cccc(-c2cccc(N)c2)c1 (centres unmarked) [Example 105] | 130 °C
Cc1cccc([C@@H](O)[C@H]2[C@@H](c3ccccc3)CC(=O)N2C)c1 (relative stereo) [Example 7, (±)-(4R*,5R*)-5-[(1R*)hydroxy(3-methylphenyl)methyl]-1-methyl-4-phenylpyrrolidin-2-one] | 163 to 165 °C
CN1C(=O)CC(c2ccccc2)C1C(O)c1ccc(-c2c(F)cc(F)cc2F)s1 (centres unmarked) [Example 75] | 95 °C
COc1cccc(C(O)C2C(c3ccccc3)CC(=O)N2C)c1 (centres unmarked) [Example 97] | 160 to 161 °C
COc1cccc(-c2cccc(C(O)C3C(c4ccccc4)CC(=O)N3C)c2)c1 (centres unmarked) [Example 107] | 183 °C
COc1ccc2oc(C(O)C3C(c4ccccc4)CC(=O)N3C)cc2c1 (centres unmarked) [Example 113] | 180 to 182 °C
CN1C(=O)CC(c2ccc(N)cc2)C1C(O)c1ccc(-c2ccc(F)cc2)s1 (centres unmarked) [Example 86] | 209 °C
CN1C(=O)C[C@H](c2ccccc2)[C@@H]1[C@H](O)/C=C/c1ccc(F)cc1 (relative stereo) [Example 15, (±)-(4R*,5R*)-5-[(2E)(1R*)-3-(4-fluorophenyl)-1-hydroxyprop-2-enyl]-1-methyl-4-phenylpyrrolidin-2-one] | 189 to 191 °C
CN1C(=O)CC(c2ccccc2)C1C(O)c1cc2ccccc2s1 (centres unmarked) [Example 41] | 195 °C (dec.)
CN1C(=O)CC(c2ccccc2)C1C(O)c1cccc(C(F)(F)F)c1 (centres unmarked) [Example 96] | 155 to 158 °C
COc1cc(-c2ccc(C(O)C3C(c4ccccc4)CC(=O)N3C)s2)cc(OC)c1OC (centres unmarked) [Example 49] | 190 °C (dec.)
